Assay results reported in the NIST ThermoML archive (doi:10.1016/j.tca.2011.02.043).

What was measured:
[1] = DTA
[2] = Molar enthalpy of transition or fusion; conditions: DSC
[3] = molar heat capacity at constant pressure; conditions: 101.33 kPa, Small sample (50 mg) DSC

[BH4-].[Li+] [lithium tetrahydroborate]
Conditions | Molar enthalpy of transition or fusion, [2] [kcal/mol] | Triple point temperature, [1] [K]
Crystal 1 | 1.96 | 553
Crystal 2 | 1.21 | 386.6

[3]
Conditions | molar heat capacity at constant pressure [J/K/mol]
298 K, Crystal 2 | 81.51
310 K, Crystal 2 | 84.51
320 K, Crystal 2 | 87.33
330 K, Crystal 2 | 89.53
340 K, Crystal 2 | 91.21
350 K, Crystal 2 | 92.47
360 K, Crystal 2 | 95.46
370 K, Crystal 2 | 101.2
380 K, Crystal 2 | 106.02
410 K, Crystal 1 | 91.06
420 K, Crystal 1 | 91.83
430 K, Crystal 1 | 93.09
440 K, Crystal 1 | 94.12
450 K, Crystal 1 | 95.43
460 K, Crystal 1 | 96.7
470 K, Crystal 1 | 97.95
480 K, Crystal 1 | 99.14
490 K, Crystal 1 | 100.69
500 K, Crystal 1 | 101.9
510 K, Crystal 1 | 103.3
520 K, Crystal 1 | 104.78
